Results as given in PubChem BioAssay AID256 (DTP/NCI, 2004).
“And” between values parts separate entries of the source, which are not always exact repeats. Equal entries are not always repeated. Toxic doses and inconclusive results are not listed.

Test system: CD2F1 mice, L1210 leukemia ip, survival T/C
Assay: NCI In Vivo Anticancer Drug Screen. Data for tumor model L1210 Leukemia (intraperitoneal) in CD2F1 (CDF1) mice
Details: higher = longer survival
Protocol: The antitumor activity of compounds was measured in mice bearing transplantable tumors. Survival or tumor size were measured and the results are expressed as the measurement made in the treated group (T) divided by the measurement made in the vehicle treated control group (C). The tumor model used in this assay is L1210 Leukemia (intraperitoneal) in CD2F1 (CDF1) mice

[1] = endpoint: mean survival time, dose: 75.0 mg/kg/injection, schedule: Q01DX001 (ip), vehicle: saline
[2] = endpoint: mean survival time, dose: 150.0 mg/kg/injection, schedule: Q01DX001 (ip), vehicle: saline
[3] = endpoint: mean survival time, dose: 100.0 mg/kg/injection, schedule: Q01DX001 (ip), vehicle: saline with Tween-80
[4] = endpoint: mean survival time, dose: 200.0 mg/kg/injection, schedule: Q01DX001 (ip), vehicle: saline with Tween-80
[5] = endpoint: mean survival time, dose: 400.0 mg/kg/injection, schedule: Q01DX001 (ip), vehicle: saline with Tween-80
[6] = endpoint: mean survival time, dose: 100.0 mg/kg/injection, schedule: Q04DX003 (ip), vehicle: saline with Tween-80
[7] = endpoint: mean survival time, dose: 200.0 mg/kg/injection, schedule: Q04DX003 (ip), vehicle: saline with Tween-80
[8] = endpoint: mean survival time, dose: 400.0 mg/kg/injection, schedule: Q04DX003 (ip), vehicle: saline with Tween-80
[9] = endpoint: mean survival time, dose: 100.0 mg/kg/injection, schedule: Q01DX009 (ip), vehicle: saline with Tween-80
[10] = endpoint: mean survival time, dose: 100.0 mg/kg/injection, schedule: Q01DX001 (ip), vehicle: saline
[11] = endpoint: mean survival time, dose: 200.0 mg/kg/injection, schedule: Q01DX001 (ip), vehicle: saline
[12] = endpoint: mean survival time, dose: 400.0 mg/kg/injection, schedule: Q01DX001 (ip), vehicle: saline

CCC(=O)OC1=CC(=O)c2ccccc2C1=O
T/C [1]: 101 % of control | T/C [2]: 105 % of control

Nc1ccccc1Cl
T/C (endpoint: mean survival time, dose: 31.25 mg/kg/injection, schedule: Q01DX009 (ip), vehicle: saline with Tween-80): 95 % of control | T/C (endpoint: mean survival time, dose: 31.25 mg/kg/injection, schedule: Q04DX003 (ip), vehicle: saline with Tween-80): 97 % of control | T/C (endpoint: mean survival time, dose: 62.5 mg/kg/injection, schedule: Q01DX009 (ip), vehicle: saline with Tween-80): 91 % of control | T/C (endpoint: mean survival time, dose: 62.5 mg/kg/injection, schedule: Q04DX003 (ip), vehicle: saline with Tween-80): 101 % of control | T/C (endpoint: mean survival time, dose: 125.0 mg/kg/injection, schedule: Q01DX009 (ip), vehicle: saline with Tween-80): 93 % of control | T/C (endpoint: mean survival time, dose: 125.0 mg/kg/injection, schedule: Q04DX003 (ip), vehicle: saline with Tween-80): 101 % of control

CN(C)/C=C1\NC(=S)NC1=O
T/C [3]: 95 % of control | T/C [4]: 91 % of control | T/C [5]: 91 % of control

O=C1CCC(=O)N1N1C(=O)CCC1=O
T/C (endpoint: mean survival time, dose: 100.0 mg/kg/injection, schedule: Q01DX001 (ip), vehicle: Klucel (hydroxypropylcellulose) (HPC)): 101 % of control | T/C (endpoint: mean survival time, dose: 200.0 mg/kg/injection, schedule: Q01DX001 (ip), vehicle: Klucel (hydroxypropylcellulose) (HPC)): 96 % of control | T/C (endpoint: mean survival time, dose: 400.0 mg/kg/injection, schedule: Q01DX001 (ip), vehicle: Klucel (hydroxypropylcellulose) (HPC)): 96 % of control

CN(C)c1ccc(C=C(Cl)Cl)cc1
T/C (endpoint: mean survival time, dose: 100.0 mg/kg/injection, schedule: Q04DX002 (ip), vehicle: other): 87 % of control | T/C (endpoint: mean survival time, dose: 200.0 mg/kg/injection, schedule: Q04DX002 (ip), vehicle: other): 91 % of control | T/C (endpoint: mean survival time, dose: 400.0 mg/kg/injection, schedule: Q04DX002 (ip), vehicle: other): 93 % of control

COc1ccc(OC)c2[nH]c(=O)c(CCC(=O)O)nc12
T/C [3]: 98 % of control | T/C [4]: 92 % of control

CCC1CCCCN1C(=S)N/N=C(\C)c1ccccn1 (stereo not drawn)
T/C (endpoint: median survival time, dose: 6.25 mg/kg/injection, schedule: Q01DX009 (ip), vehicle: saline with Tween-80): 101 % of control | T/C (endpoint: median survival time, dose: 12.5 mg/kg/injection, schedule: Q01DX009 (ip), vehicle: saline with Tween-80): 108 % of control | T/C (endpoint: median survival time, dose: 25.0 mg/kg/injection, schedule: Q01DX009 (ip), vehicle: saline with Tween-80): 86 % of control

Nc1nc(-c2cccc([N+](=O)[O-])c2)c(N=Nc2cccc([N+](=O)[O-])c2)s1
T/C [3]: 89 % of control | T/C [5]: 90 % of control

C/C(=N\O)C(C)(O)C(C)(C)C (stereo not drawn)
T/C [6]: 90 % of control | T/C [7]: 98 % of control | T/C [8]: 93 % of control

NC(=O)c1cn(C2OC(CO)C(O)C2O)c2nc(N)nc(N)c2c1=O (stereo not drawn)
T/C (endpoint: mean survival time, dose: 12.5 mg/kg/injection, schedule: Q01DX005 (ip), vehicle: water): 104 % of control | T/C (endpoint: mean survival time, dose: 25.0 mg/kg/injection, schedule: Q01DX005 (ip), vehicle: water): 104 % of control | T/C (endpoint: mean survival time, dose: 50.0 mg/kg/injection, schedule: Q01DX005 (ip), vehicle: water): 104 % of control | T/C (endpoint: mean survival time, dose: 100.0 mg/kg/injection, schedule: Q01DX005 (ip), vehicle: water): 124 % of control | T/C (endpoint: median survival time, dose: 50.0 mg/kg/injection, schedule: Q01DX005 (ip), vehicle: saline with Tween-80): 103 % of control and 107 % of control | T/C (endpoint: median survival time, dose: 100.0 mg/kg/injection, schedule: Q01DX005 (ip), vehicle: saline with Tween-80): 105 % of control and 110 % of control | T/C (endpoint: median survival time, dose: 200.0 mg/kg/injection, schedule: Q01DX005 (ip), vehicle: saline with Tween-80): 115 % of control and 106 % of control | T/C (endpoint: median survival time, dose: 400.0 mg/kg/injection, schedule: Q01DX005 (ip), vehicle: saline with Tween-80): 117 % of control

O=c1[nH]cc(Br)cc1[N+](=O)[O-]
T/C (endpoint: mean survival time, dose: 100.0 mg/kg/injection, schedule: Q04DX002 (ip), vehicle: saline with Tween-80): 101 % of control | T/C (endpoint: mean survival time, dose: 200.0 mg/kg/injection, schedule: Q04DX002 (ip), vehicle: saline with Tween-80): 112 % of control | T/C (endpoint: mean survival time, dose: 400.0 mg/kg/injection, schedule: Q04DX002 (ip), vehicle: saline with Tween-80): 108 % of control

CN1CCCC(OC(=O)C(c2ccccc2)C2(O)CCCCC2)C1 (stereo not drawn)
T/C [1]: 101 % of control

O=C(O)C1C2CC3C(C2)C31 (stereo not drawn)
T/C (endpoint: mean survival time, dose: 100.0 mg/kg/injection, schedule: Q01DX009 (ip), vehicle: other): 96 % of control | T/C (endpoint: mean survival time, dose: 200.0 mg/kg/injection, schedule: Q01DX009 (ip), vehicle: other): 104 % of control

CC(=O)Nc1c(F)c(F)c(F)c(F)c1F
T/C [3]: 102 % of control | T/C [4]: 95 % of control | T/C [5]: 94 % of control

CC(=O)/C(=C\c1ccccc1)CNC(C)(C)C
T/C (endpoint: mean survival time, dose: 25.0 mg/kg/injection, schedule: Q01DX001 (ip), vehicle: saline with Tween-80): 92 % of control | T/C (endpoint: mean survival time, dose: 50.0 mg/kg/injection, schedule: Q01DX001 (ip), vehicle: saline with Tween-80): 100 % of control | T/C [3]: 100 % of control

C[N+](C)(C)c1ncnc2nc[nH]c12
T/C (endpoint: mean survival time, dose: 12.5 mg/kg/injection, schedule: Q01DX009 (ip), vehicle: saline): 98 % of control and 108 % of control | T/C (endpoint: mean survival time, dose: 25.0 mg/kg/injection, schedule: Q01DX009 (ip), vehicle: saline): 106 % of control and 108 % of control | T/C (endpoint: mean survival time, dose: 50.0 mg/kg/injection, schedule: Q01DX009 (ip), vehicle: saline): 97 % of control and 112 % of control | T/C (endpoint: mean survival time, dose: 100.0 mg/kg/injection, schedule: Q01DX009 (ip), vehicle: saline): 120 % of control and 121 % of control

CCOC(=O)C(=C=[N-])[n+]1ccc(C)cc1
T/C (endpoint: mean survival time, dose: 6.25 mg/kg/injection, schedule: Q01DX001 (ip), vehicle: saline sonified): 101 % of control | T/C (endpoint: mean survival time, dose: 6.25 mg/kg/injection, schedule: Q01DX009 (ip), vehicle: saline sonified): 94 % of control | T/C (endpoint: mean survival time, dose: 12.5 mg/kg/injection, schedule: Q01DX001 (ip), vehicle: saline sonified): 103 % of control | T/C (endpoint: mean survival time, dose: 12.5 mg/kg/injection, schedule: Q01DX009 (ip), vehicle: saline sonified): 94 % of control | T/C (endpoint: mean survival time, dose: 25.0 mg/kg/injection, schedule: Q01DX001 (ip), vehicle: saline sonified): 103 % of control | T/C (endpoint: mean survival time, dose: 25.0 mg/kg/injection, schedule: Q01DX009 (ip), vehicle: saline sonified): 89 % of control

O=c1[nH]ccc(=S)[nH]1
T/C [3]: 97 % of control | T/C [4]: 88 % of control

COc1cc(C=Nc2ccc(-n3ccnc3C)cc2)ccc1N(CCCl)CCCl
T/C (endpoint: mean survival time, dose: 2.5 mg/kg/injection, schedule: Q01DX009 (ip), vehicle: saline with Tween-80): 98 % of control | T/C (endpoint: mean survival time, dose: 5.0 mg/kg/injection, schedule: Q01DX009 (ip), vehicle: saline with Tween-80): 113 % of control | T/C (endpoint: mean survival time, dose: 10.0 mg/kg/injection, schedule: Q01DX009 (ip), vehicle: saline with Tween-80): 112 % of control | T/C (endpoint: mean survival time, dose: 20.0 mg/kg/injection, schedule: Q01DX009 (ip), vehicle: saline with Tween-80): 117 % of control

COc1cc(C(C)=O)cc([N+](=O)[O-])c1O
T/C (endpoint: mean survival time, dose: 50.0 mg/kg/injection, schedule: Q01DX009 (ip), vehicle: saline with Tween-80): 102 % of control | T/C [9]: 91 % of control

c1ccc(-c2ccc(-c3nnn4ccccc34)cc2)cc1
T/C [10]: 107 % of control | T/C [11]: 86 % of control | T/C [12]: 95 % of control

Nc1nc(SSc2nc(N)nc3c2ncn3C2CC(O)C(CO)O2)c2ncn(C3CC(O)C(CO)O3)c2n1 (stereo not drawn)
T/C (endpoint: mean survival time, dose: 2.3 mg/kg/injection, schedule: Q01DX009 (ip), vehicle: saline): 152 % of control | T/C (endpoint: mean survival time, dose: 4.7 mg/kg/injection, schedule: Q01DX009 (ip), vehicle: saline): 162 % of control | T/C (endpoint: mean survival time, dose: 18.8 mg/kg/injection, schedule: Q01DX009 (ip), vehicle: saline): 119 % of control

CCCN(CCC)N=Nc1ccccc1
T/C [1]: 104 % of control | T/C [2]: 101 % of control

C=C(Br)CNC(=O)Nc1c2ccccc2nc2ccccc12
T/C (endpoint: mean survival time, dose: 25.0 mg/kg/injection, schedule: Q01DX009 (ip), vehicle: Klucel (hydroxypropylcellulose) (HPC)): 97 % of control | T/C (endpoint: mean survival time, dose: 50.0 mg/kg/injection, schedule: Q01DX009 (ip), vehicle: Klucel (hydroxypropylcellulose) (HPC)): 98 % of control | T/C (endpoint: mean survival time, dose: 100.0 mg/kg/injection, schedule: Q01DX009 (ip), vehicle: Klucel (hydroxypropylcellulose) (HPC)): 97 % of control

O=C(O)C1CCCN1C(=O)c1ccccc1 (stereo not drawn)
T/C [6]: 103 % of control | T/C [7]: 93 % of control | T/C [8]: 98 % of control

CC(SCc1ccccc1)C(NC(=O)c1ccccc1)C(=O)O (stereo not drawn)
T/C [9]: 93 % of control | T/C [6]: 98 % of control | T/C (endpoint: mean survival time, dose: 200.0 mg/kg/injection, schedule: Q01DX009 (ip), vehicle: saline with Tween-80): 90 % of control | T/C [7]: 98 % of control | T/C (endpoint: mean survival time, dose: 400.0 mg/kg/injection, schedule: Q01DX009 (ip), vehicle: saline with Tween-80): 93 % of control | T/C [8]: 101 % of control

NC(N)=NCCN=C(N)N
T/C [10]: 105 % of control | T/C [11]: 94 % of control | T/C [12]: 100 % of control
